Laboratory results: patent publication US20080171709A1, “Pharmaceutical Composition Comprising An Antiviral Agent, An Antitumoral Agent Or An Antiparasitic Agent, And An Active Agent Selected Among Carveol, Thymol, Eugenol, Borneol,And Carvacrol” (priority 2005, published 2008)
Converted amounts (≈) assume the structure as drawn. Where two headings read alike, the source gives them in different places.

Legend:
[1] = system: HEP (human larynx carcinoma) cell line; assay: MTT cytotoxicity on HEP cell line; assay type: cell-based
Experimental: (§1) […] tests were carried out on HEP (human larynx carcinoma), BSR (hamster kidney carcinoma) and P815 (murin mastocytoma) cell lines cultivated on DMEM medium (Dulbecco's modified eagles medium) supplemented with 5% of fetal bovine serum (Gibco BRL, France), 1% of penicillin- streptomycin-neomycin, 0.2% of sodium bicarbonate. These percentages are given as ratio of the weight to the global volume of the medium.
(§2) In these compositions, excipient is agar solution.
(§3) IC50 have been determined.

[2] = system: BSR (hamster kidney carcinoma) cell line; assay: MTT cytotoxicity on BSR cell line; assay type: cell-based; details: Mesocricetus auratus, read-out: IC50 (concentration inducing cytotoxicity for 50% of treated tumor cells)
Experimental: as §1, §2, §3

[3] = system: P815 (murin mastocytoma) cell line; assay: MTT cytotoxicity on P815 cell line; assay type: cell-based; details: Mus musculus, P815, read-out: IC50 (concentration inducing cytotoxicity for 50% of treated tumor cells)
Experimental: as §1, §2, §3

[4] = system: HEP, BSR and P815 cell lines; assay: cells
Experimental: as §1, §2, §3

[5] = read-out: IC50 (concentration inducing cytotoxicity for 50% of treated tumor cells)

| SMILES | IC50 [1, 5] [µg/mL] | IC50 [2] [µg/mL] | IC50 [3] [µg/mL] | cytotoxic effects towards cell lines at the concentration used in the tested compositions [4] | IC50 ([1]; read-out: IC50 (concentration inducing cytotoxicity for 50% of treated tumor cells), HEP, carvacrol, thymol or carveol alone) [µg/mL] | IC50 ([2]; BSR, carvacrol, thymol or carveol alone) [µg/mL] | IC50 ([4]; Mus musculus, P815, read-out: IC50 of doxorubicin used alone) [µg/mL] |
| --- | --- | --- | --- | --- | --- | --- | --- |
| C=C(C)C1CC=C(C)C(O)C1 (mixture of isomers) [Carveol, carveol] | 400 | 400 | 400 | without any cytotoxic effects |  |  |  |
| Cc1ccc(C(C)C)cc1O [Carvacrol, carvacrol] |  |  | 300 (≈ 2000 µM) | without any cytotoxic effects | 300 (≈ 2000 µM) | 300 (≈ 2000 µM) |  |
| COc1cccc2c1C(=O)c1c(O)c3c(c(O)c1C2=O)C[C@@](O)(C(=O)CO)C[C@@H]3O[C@H]1C[C@H](N)[C@H](O)[C@H](C)O1 [Doxorubicin, doxorubicin, reference compound] | 20 (≈ 36.8 µM) | 25 (≈ 46 µM) | 15 (≈ 27.6 µM) |  |  |  | 15 to 25 (≈ 27.6 to 46 µM) |
| Cc1ccc(C(C)C)c(O)c1 [Thymol, thymol] | 300 (≈ 2000 µM) | 300 (≈ 2000 µM) | 300 (≈ 2000 µM) | without any cytotoxic effects |  |  |  |
